# Reference: patent publication US10668043B2, “Potentiated antimicrobial agents” (priority 2014, dated 2020)
# Key:
# MRSA 10168 = details: mouse, in vivo
# Procedure: To Balb/c mice, is injected (Sc.) the antimicrobial product or the antimicrobial+booster mixture.
# At different post-injection times, the mice are euthanised, and blood sampled, heparined and centrifuged to extract plasma thereof
# Antibacterial effects are measured after 24 h incubation. The successive dilutions enable the antimicrobial effect to be determined and compared with the MIC. The efficient concentration/MIC ratio is thus determined.
# strains = assay: MIC of cineol alone, strains not named; assay type: cell-based; details: cineol used alone; strains of the etest example
# [1] = tested on: microorganisms grown in planktonic and biofilm cultures; details: Hendry et al, J Antimicrob Chemother 2009; cited from earlier work
# MRSA = assay: Sepsis model, in vivo test 2; set-up: species or system CD1 mice; details: CIN 32 mg/kg without antibiotic; subcutaneous; count at 24 h
# Procedure: 200 μL of a bacterial solution (MRSA) adjusted to 5.108 UFC/ml is injected by the intravenous route (retro-orbital route) to CD1 mice. The treatment is initiated 1 h after the bacteria injection by the subcutaneous route.
# At 24 h, the mice are euthanized and a bacterial count is made in the kidney.
# Controls: untreated group, group receiving 32 mg/kg cineol without antibiotic (CIN), group receiving 8 mg/kg antibiotic without cineol (AMC8). • (*) p<0.05 vs control, AMC8 and CIN • (£) p<0.05 vs control and CIN • ($) p<0.05 vs control, AMC8, CIN, AMC+CIN 128, AMC+CIN 256
# strain 08150 = assay: Post antibiotic effect; assay type: cell-based
# Staphylococcus [2] = assay: Double dilution test; assay type: cell-based; details: strain 8148
# Text: (§1) The double dilution test is a MIC measurement test made on successive dilutions of the 2 products of the composition. […] The summary table expresses for each strain and for each dilution of the booster the measured antibiotic MIC.
# (§2) The code enabling the results to be interpreted is the following one: no sign “^+” if the MIC is equivalent with and without booster, a sign “^+” if the value is lower with booster.
# E. coli = assay: Double dilution test; assay type: cell-based
# Text: as §1, §2
# Staphylococcus [3] = assay: MIC measurement in agar solid medium (CLSI); assay type: cell-based
# Text: (§3) Inhibitory minimum concentration measurement tests are made in a solid agar medium according to international standards in force (CLSI M7-A9 Jan 12 standards): dispersion of the compounds to be tested in a Mueller Hinton gelose. An adaptation relating to the hydrophobicity of compounds and compositions is however necessary to disperse them in the medium: dilution of the compounds in a solvent. The compounds and compositions incorporated in the agar medium can be diluted beforehand in one or more solvents (Tween® 80 diluted with water, tween® 80 diluted with propylene, DMSO diluted with water). The strains are deposited onto the agar surface with a steers apparatus. In the examples, different dissolution methods for products are tested in parallel to circumvent the problems of water/solvent distribution coefficient of the molecules (antimicrobial and potentiator) whereas the bacteria grow only in the aqueous phase. The technical requirement will not intervene in in vivo tests. The same dilution methods can be implemented in a liquid medium (microplates and tubes). The same methodology is implemented with fungi. MIC measurement: the minimum inhibitory concentration measurement tests are made in an agar solid medium according to international standards in force (CLSI standards), according to the previously defined protocol. […] The booster contribution as compared with the MIC of the antibiotic alone is expressed in a (MIC ATB)/(MIC ATB+booster) ratio. Thereby, gains are defined: […] The tested strains are isolated from various human samples (blood, urine, pulmonary aspirates, etc.). The strains investigated in the following examples are chosen from the strains of the following table: [table] […] The MICs are measured on different strains. Then, the MIC gain is calculated on the strains belonging to the same genus. The MIC gain expresses the following ratio: […]
# Escherichia coli = assay: MIC measurement in agar solid medium (CLSI); assay type: cell-based
# Text: as §3
# Pseudomonas aeruginosa = assay: MIC measurement in agar solid medium (CLSI); assay type: cell-based
# Text: Inhibitory minimum concentration measurement tests are made in a solid agar medium according to international standards in force (CLSI M7-A9 Jan 12 standards): dispersion of the compounds to be tested in a Mueller Hinton gelose. An adaptation relating to the hydrophobicity of compounds and compositions is however necessary to disperse them in the medium: dilution of the compounds in a solvent. The compounds and compositions incorporated in the agar medium can be diluted beforehand in one or more solvents (Tween® 80 diluted with water, tween® 80 diluted with propylene, DMSO diluted with water). The strains are deposited onto the agar surface with a steers apparatus. In the examples, different dissolution methods for products are tested in parallel to circumvent the problems of water/solvent distribution coefficient of the molecules (antimicrobial and potentiator) whereas the bacteria grow only in the aqueous phase. The technical requirement will not intervene in in vivo tests. The same dilution methods can be implemented in a liquid medium (microplates and tubes). The same methodology is implemented with fungi.
# MIC measurement: the minimum inhibitory concentration measurement tests are made in an agar solid medium according to international standards in force (CLSI standards), according to the previously defined protocol. The compounds and compositions incorporated in the agar medium can be diluted beforehand in one or more solvents (Tween® 80 diluted with water—3.4 ml Tween for 9.6 ml water—, tween® 80 diluted with propylene 10-3.4 ml Tween for 9.6 ml propylene—, or DMSO diluted with water).
# The booster contribution as compared with the MIC of the antibiotic alone is expressed in a (MIC ATB)/(MIC ATB+booster) ratio. Thereby, gains are defined:
# MIC 50 gain=(MIC50 of the antibiotic alone)/(MIC50 (antibiotic+booster))
# MIC 90 gain=(MIC90 of the antibiotic alone)/(MIC90 (antibiotic+booster))
# The tested strains are isolated from various human samples (blood, urine, pulmonary aspirates, etc.). The strains investigated in the following examples are chosen from the strains of the following table: […]
compound,measurement,setting,value
amoxicillin/clavulanic acid [Augmentin®],Time spent beyond the MIC,MRSA 10168,<4 h
"CC12CCC(CC1)C(C)(C)O2 [Cineol, cineol]",MIC50,strains,> 10000 µg/mL
same,MIC of cineole,[1],8000 to 64000 µg/mL
same,Mean ± SD log10 UFC/g kidney,MRSA,6.35 ± 0.29 log10 UFC/g kidney
same,number of bacteria,"strain 08150; time 0 h after 16 h contact, Cineol 4 mg/L (AC, where present, at its MIC)",2.17E+07
same,number of bacteria,"strain 08150; time 0 h after 16 h contact, Cineol 16 mg/L (AC, where present, at its MIC)",2.20E+07
same,number of bacteria,"strain 08150; time 1 h after 16 h contact, Cineol 4 mg/L (AC, where present, at its MIC)",4.92E+07
same,number of bacteria,"strain 08150; time 1 h after 16 h contact, Cineol 16 mg/L (AC, where present, at its MIC)",3.88E+07
same,number of bacteria,"strain 08150; time 2 h after 16 h contact, Cineol 4 mg/L (AC, where present, at its MIC)",5.50E+07
same,number of bacteria,"strain 08150; time 2 h after 16 h contact, Cineol 16 mg/L (AC, where present, at its MIC)",6.40E+07
same,number of bacteria,"strain 08150; time 3 h after 16 h contact, Cineol 4 mg/L (AC, where present, at its MIC)",3.90E+08
same,number of bacteria,"strain 08150; time 3 h after 16 h contact, Cineol 16 mg/L (AC, where present, at its MIC)",2.70E+08
same,number of bacteria,"strain 08150; time 4 h after 16 h contact, Cineol 4 mg/L (AC, where present, at its MIC)",3.50E+08
same,number of bacteria,"strain 08150; time 4 h after 16 h contact, Cineol 16 mg/L (AC, where present, at its MIC)",4.20E+08
same,number of bacteria,"strain 08150; time 5 h after 16 h contact, Cineol 4 mg/L (AC, where present, at its MIC)",5.90E+08
same,number of bacteria,"strain 08150; time 5 h after 16 h contact, Cineol 16 mg/L (AC, where present, at its MIC)",5.50E+08
same,number of bacteria,"strain 08150; time 6 h after 16 h contact, Cineol 4 mg/L (AC, where present, at its MIC)",6.00E+08
same,number of bacteria,"strain 08150; time 6 h after 16 h contact, Cineol 16 mg/L (AC, where present, at its MIC)",5.90E+08
same,MIC of cineol alone,Staphylococcus [2],> 2.5 µg/mL
same,MIC of cineol alone,E. coli; strain 8137,> 2.5 µg/mL
same,MIC of cineol alone,E. coli; strain 8151,> 2.5 µg/mL
same,MIC of cineol alone,E. coli; strain 8155,> 2.5 µg/mL
same,MIC of cineol alone,E. coli; strain 8156,> 2.5 µg/mL
same,MIC of cineol alone,E. coli; strain ATCC 25922,> 2.5 µg/mL
same,MIC 50 of cineol alone,Staphylococcus [3]; DMSO,>1%
same,MIC 90 of cineol alone,Staphylococcus [3]; DMSO,>1%
same,MIC 50 of cineol alone,Staphylococcus [3]; Tween/prop glyc,>1%
same,MIC 90 of cineol alone,Staphylococcus [3]; Tween/prop glyc,>1%
same,MIC 50 of cineol alone,Staphylococcus [3]; Tween/water,>1%
same,MIC 90 of cineol alone,Staphylococcus [3]; Tween/water,>1%
same,MIC 50 of cineol alone,Staphylococcus [3]; water/water,>1%
same,MIC 90 of cineol alone,Staphylococcus [3]; water/water,>1%
same,MIC 50 of cineol alone,Escherichia coli; DMSO,>1%
same,MIC 90 of cineol alone,Escherichia coli; DMSO,>1%
same,MIC 50 of cineol alone,Escherichia coli; Tween/prop glyc,>1%
same,MIC 90 of cineol alone,Escherichia coli; Tween/prop glyc,>1%
same,MIC 50 of cineol alone,Escherichia coli; Tween/water,>1%
same,MIC 90 of cineol alone,Escherichia coli; Tween/water,>1%
same,MIC 50 of cineol alone,Escherichia coli; water/water,>1%
same,MIC 90 of cineol alone,Escherichia coli; water/water,>1%
same,MIC 50 of cineol alone,Pseudomonas aeruginosa; DMSO,1%
same,MIC 90 of cineol alone,Pseudomonas aeruginosa; DMSO,1%
same,MIC 50 of cineol alone,Pseudomonas aeruginosa; Tween/prop glyc,>1%
same,MIC 90 of cineol alone,Pseudomonas aeruginosa; Tween/prop glyc,>1%
same,MIC 50 of cineol alone,Pseudomonas aeruginosa; Tween/water,>1%
same,MIC 90 of cineol alone,Pseudomonas aeruginosa; Tween/water,>1%
same,MIC 50 of cineol alone,Pseudomonas aeruginosa; water/water,>1%
same,MIC 90 of cineol alone,Pseudomonas aeruginosa; water/water,>1%
